Data from article PMC5413004, “Small molecule inhibitors of mesotrypsin from a structure-based docking screen” (PLoS ONE, 2017).

Assays:
[1] = target: T1, mesotrypsin (Homo sapiens, UniProt P35030); experiment: Competitive inhibition assay with N-Cbz-Gly-Pro-Arg-pNA, mesotrypsin; format: biochemical; conditions: for Ki: 0.25 nM enzyme, 37°C, pH 8.0, global fit to competitive inhibition, duplicate independent experiments
T1 construct: made in house; host or cells: E. coli
T1 sequence (P35030 81-304 limits assumed): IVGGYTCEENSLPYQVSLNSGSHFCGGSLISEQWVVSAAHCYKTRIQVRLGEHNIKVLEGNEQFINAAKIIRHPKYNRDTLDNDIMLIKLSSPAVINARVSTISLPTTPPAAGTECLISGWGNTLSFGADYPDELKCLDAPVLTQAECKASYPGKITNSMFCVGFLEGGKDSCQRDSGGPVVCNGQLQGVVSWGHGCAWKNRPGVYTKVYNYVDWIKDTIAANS
From the text: (§1) Recombinant human anionic trypsinogen, human cationic trypsinogen and human mesotrypsinogen were expressed in E. coli, extracted from inclusion bodies, refolded, purified and activated with bovine enteropeptidase as described in previous work.
(§2) Active mesotrypsin was quantified by active site titration as described in [21] using 4-nitrophenyl-4-guanidinobenzoate (NPGB) from Sigma. Concentrations of colorimetric peptide reporter substrate N-Cbz-Gly-Pro-Arg-pNA (Sigma) for the activity and competitive inhibition assay were determined by end point assay. Working stocks for compounds were diluted in dimethylsulfoxide (DMSO) and stored at -20°C. Compounds were assessed for mesotrypsin inhibitory activity in reactions carried out in cuvettes at 37°C in a Varian Cary-100 spectrophotometer. Reactions consisted of 0.25 nM enzyme, 100 μM reporter substrate, 100 mM Tris-HCl pH 8.0, 1 mM CaCl2, and a compound concentration range between 50 nM to 500 μM in the assay. Reactions were followed for approximately three minutes, with the initial rates determined by the linear increase in absorbance resulting from para-nitroaniline production (ε410 = 8480 M^-1 cm^-1). Absorbance versus compound concentration was plotted on a Linear-Log scale to determine IC50.
(§3) The competitive inhibition assay reactions consisted of 0.25 nM enzyme, five reporter substrate concentrations between 10 μM-200 μM, and five inhibitory compound concentrations between 1–30 μM. Reactions were followed for approximately 3 minutes, and the initial rate data were globally fitted using Prism (GraphPad Software, San Diego CA) by non-linear regression based on Eq 1. Results are from duplicate independent experiments.
(§4) V= Kcat[E]o[S]/Km (1+[I]/Ki)+[S] (1)

[2] = target: T1, mesotrypsin; experiment: Mesotrypsin activity assay (colorimetric, N-Cbz-Gly-Pro-Arg-pNA); format: biochemical; conditions: 0.25 nM enzyme, 100 μM substrate, compound 50 nM to 500 μM, 37°C
Method: Compounds were tested by an in vitro activity assay utilizing the colorimetric peptide reporter substrate N-Cbz-Gly-Pro-Arg-pNA. The assay monitors the rate of para-nitroaniline production after substrate cleavage by mesotrypsin.
as §1
as §2, with “Reactions consisted of 0.25 nM enzyme, 100 μM reporter substrate, 100 mM Tris-HCl pH 8.0, 1 mM CaCl2, and a compound concentration range between 50 nM to 500 μM in the assay.” left out

[3] = target: T2, trypsin 2 (anionic trypsin) (Homo sapiens, UniProt P07478); experiment: Competitive inhibition assay, anionic trypsin; format: biochemical; conditions: human trypsin 2
T2 construct: made in house; host or cells: E. coli
Method: (§5) To assess compound selectivity we determined Ki for the three compounds towards related human trypsin isoforms trypsin 1 (cationic trypsin) and trypsin 2 (anionic trypsin).
as §1, §3, §4

[4] = target: T3, trypsin 1 (cationic trypsin) (Homo sapiens, UniProt P07477); experiment: Competitive inhibition assay, cationic trypsin; format: biochemical; conditions: human trypsin 1
T3 construct: made in house; host or cells: E. coli
Method: as §5, §1, §3, §4

[5] = target: trypsin IV (mesotrypsin); conditions: versus trypsin IV (mesotrypsin); cited from earlier work

T2 sequence (P07478 24-247): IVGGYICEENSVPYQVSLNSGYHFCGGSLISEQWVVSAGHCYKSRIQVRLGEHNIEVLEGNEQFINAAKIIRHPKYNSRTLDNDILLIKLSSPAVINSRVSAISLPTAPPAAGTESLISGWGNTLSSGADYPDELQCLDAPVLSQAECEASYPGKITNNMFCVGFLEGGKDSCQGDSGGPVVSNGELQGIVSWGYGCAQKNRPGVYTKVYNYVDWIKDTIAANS

Row | Compound | Ki [1] | inhibition mode ([1]; multiple substrate and compound concentrations, Lineweaver-Burk) | inhibitory activity towards mesotrypsin [2] | Ki [3] | Ki [4] | Ki [5]
1 | N=C(N)c1ccc(/N=N/Nc2ccc(C(=N)N)cc2)cc1 [Diminazene] | 3.66 µM | competitive inhibitor | low micromolar range | 2290 ± 210 nM | 3.44 ± 0.41 µM | 
2 | N=C(N)c1ccccc1 [Benzamidine] |  |  |  |  |  | 22 µM
3 | N=C(N)c1ccc(/C=C/c2ccc(C(=N)N)cc2O)cc1 [Hydroxystilbamidine, hydroxystilbamidine] | 10.6 µM |  | low micromolar range | 1700 ± 50 nM | 3.35 ± 0.35 µM | 
4 | N=C(N)c1ccc(OCCCCCOc2ccc(C(=N)N)cc2)cc1 [Pentamidine, pentamidine] | 5.1 µM |  |  | 1060 ± 10 nM | 3.12 ± 0.6 µM | 
